From patent publication US8399514B2, “Treatment for multiple sclerosis” (Biogen Idec MA Inc., priority 2007, dated 2013)

Columns and labels:
Nrf2 [1] = experiment: Western blot of Nrf2 and NQO1 in DLD1 cells treated with DMF or MMF; assay type: cell-based, human; conditions: DLD1 cells in culture; 5, 15, or 50 μM; 16 hours
Protocol: Human colon carcinoma DLD1 cells were treated with DMF or MMF at indicated concentrations (5, 15, or 50 μM) for 16 hours, rinsed with PBS, and harvested into reducing SDS sample buffer. The lysates were subjected to SDS PAGE and the separated proteins were electrophoretically transferred onto nitrocellulose membranes for Western blot analysis. To detect Nrf2 and NQO1, the membranes were incubated with the respective primary antibodies overnight at 4° C., washed, and incubated with peroxidase-conjugated secondary antibodies followed by the chemiluminescent peroxidase substrate. Detection of the target protein band luminescence and image acquisition were done using CCD-equipped imaging station Kodak2000R.

Nrf2 [2] = experiment: RNAi (siRNA Nrf2/Keap1) experiment in DLD1 cells stimulated with DMF, Western blot of Nrf2 and NQO1; assay type: cell-based, human; conditions: 30 μM DMF for 40 hours
Protocol: DLD1 cells were grown in MEM supplemented with 10% fetal bovine serum. The cells were transfected with the indicated siRNA's using the Lipofectamine reagent (Invitrogen) according to the manufacturer's instructions and 30 hrs later stimulated with 30 μM DMF for 40 hours. The cells were harvested and processed for Western blotting analysis of Nrf2 and NQO1 levels as described in Example 1. Sources and the identity of reagents used in Examples 1 and 2 are specified Table 3 below: […]

Nrf2 [3] = experiment: Nrf2 immunohistochemistry of spinal cord tissues in MOG 35-55 induced EAE; assay type: in vivo; conditions: EAE mice, oral gavage twice a day from day 3 p.i., DMF 5 or 15 mg/kg, MMF 15 mg/kg
Protocol: For induction of EAE, mice received s.c. injections in the flanks and tail base of 50 μg MOG 35-55 peptide in PBS emulsified in an equal volume of complete Freund's adjuvant (CFA) containing Mycobacterium tuberculosis H37RA (Difco, Detroit Mich., USA) at a final concentration of 0.5 mg/ml. Two injections of pertussis toxin (List Biological Laboratories Inc., California, USA; […] i.p) were given on days 0 and 2.
DMF and MMF was diluted in 200 μl 0.08% Methocel/H2O as vehicle and administered by oral gavage starting from day 3 post immunization (p.i) until termination. Each treatment group consisted of 8 animals: vehicle alone as a negative control, 5 mg/kg body weight DMF twice a day, 15 mg/kg body weight DMF twice a day, 15 mg/kg body weight MMF twice a day. The compounds were obtained via Fumapharm AG. Oral gavage was used to ensure exact dosing and to avoid compound degradation.
Spinal cord tissues were fixed in 4% paraformaldehyde and embedded in paraffin. […]
Immunohistochemistry was performed using the Dako autostainer as follows. […] The rabbit anti Nrf2 antibody C-20 (sc-722, Santa Cruz Biotechnology) was added at a 1:250 dilution in Dako Diluent with Background Reducing Components (Dako # S3022) C-20 antibody was detected using the Envision anti rabbit labeled polymer-HRP (Dako #K4003) and DAB (Vector Labs #SK-4100) was used as the chromogenic substrate. […]

Row | SMILES | activation of Nrf2 (Nrf2 and NQO1 protein levels, Western blot, FIG. 1) (Nrf2 [1]) | DMF-induced upregulation of NQO1, dependence on Nrf2 (FIG. 2) (Nrf2 [2]; DLD1 cells transfected with Nrf2 or Keap1 siRNA) | Nrf2 agonism: cellular accumulation of Nrf2 and Nrf2 target gene expression (FIG. 2) (Nrf2 [2]; DLD1 cells) | activation of Nrf2 in vivo (Nrf2 immunostaining, morphometric analysis, FIGS. 3 and 4) (Nrf2 [3])
1 | COC(=O)/C=C/C(=O)OC [DMF] | potent activators of Nrf2 | upregulation of NQO1 requires Nrf2 | acts as an Nrf2 agonist | activation of Nrf2 in vivo
2 | COC(=O)/C=C/C(=O)O [MMF] | potent activators of Nrf2 | – | – | activation of Nrf2 in vivo
